ChEMBL document CHEMBL1201862, “PubChem BioAssay data set” (2004)
“And” between values parts separate entries of the source, which are not always exact repeats. Equal values may be shown once. The source made the active and inactive calls.

How the values were obtained:
[1] = target: T1, Neuropeptides B/W receptor type 1 (Homo sapiens, UniProt P48145); assay: human NPBW1 receptor blockade, IC50 – cell-based, fluorescence, dose response, set 5, late-stage follow-up (AID 588566); assay type: functional
T1 sequence (P48145 whole entry): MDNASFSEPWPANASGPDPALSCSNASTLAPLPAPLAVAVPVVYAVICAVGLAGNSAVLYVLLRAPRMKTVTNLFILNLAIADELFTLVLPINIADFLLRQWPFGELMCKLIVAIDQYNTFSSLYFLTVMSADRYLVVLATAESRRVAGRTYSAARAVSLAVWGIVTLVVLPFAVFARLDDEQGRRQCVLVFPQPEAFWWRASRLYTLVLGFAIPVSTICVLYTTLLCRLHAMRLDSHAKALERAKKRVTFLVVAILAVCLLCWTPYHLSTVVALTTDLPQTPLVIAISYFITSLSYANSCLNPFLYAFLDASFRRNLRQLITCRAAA

[2] = target: Melanin-concentrating hormone receptor 1 (Homo sapiens, UniProt Q99705); assay: Late-stage fluorescence-based counterscreen for antagonists of the G-protein coupled receptor 7 (GPR7): cell-based dose response assay to identify antagonists of the melanin-concentrating hormone receptor 1 (MCHR1) Set 5.; assay type: functional
[3] = target: Multidrug resistance protein CDR2 (Candida albicans (strain SC5314 / ATCC MYA-2876) (Yeast), UniProt P78595); assay: inhibition of Nile Red efflux via Candida CDR2 – S. cerevisiae AD1-8u, singleplex, Cherry Pick1 hits, dose response (AID 588604); assay type: functional
[4] = cAMP pathway inhibition in counterscreen cell line – TR-FRET cAMP detection, counter-screen for MC4R biased antagonist project, dose response (AID 602305); assay type: functional, cell-based;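 also: U2OS cells stimulated with forskolin near its EC80 as the cAMP inducer; potency is for inhibition of forskolin-stimulated cAMP signaling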
[5] = target: Melanocortin receptor 4 (Homo sapiens, UniProt P32245); assay: inhibitors of MC4R cAMP signaling – cell-based, TR-FRET, biased antagonists, dose response (AID 602298); assay type: functional;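 also: antagonist potency against agonist-stimulated cAMP production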
[6] = target: Protein disulfide-isomerase (Homo sapiens, UniProt P07237); assay: inhibition of PDI-driven insulin aggregation – biochemical, turbidity, absorbance, cherry-picked samples, dose response (AID 602350); assay type: functional
[7] = target: T2, Apoptotic protease-activating factor 1 (Homo sapiens, UniProt O14727); assay: SAR analysis of small molecule Activators of Apaf-1 in a Fluorescent assay.; assay type: functional; settings: read-out: EC50_Mean
T2 sequence (O14727 whole entry): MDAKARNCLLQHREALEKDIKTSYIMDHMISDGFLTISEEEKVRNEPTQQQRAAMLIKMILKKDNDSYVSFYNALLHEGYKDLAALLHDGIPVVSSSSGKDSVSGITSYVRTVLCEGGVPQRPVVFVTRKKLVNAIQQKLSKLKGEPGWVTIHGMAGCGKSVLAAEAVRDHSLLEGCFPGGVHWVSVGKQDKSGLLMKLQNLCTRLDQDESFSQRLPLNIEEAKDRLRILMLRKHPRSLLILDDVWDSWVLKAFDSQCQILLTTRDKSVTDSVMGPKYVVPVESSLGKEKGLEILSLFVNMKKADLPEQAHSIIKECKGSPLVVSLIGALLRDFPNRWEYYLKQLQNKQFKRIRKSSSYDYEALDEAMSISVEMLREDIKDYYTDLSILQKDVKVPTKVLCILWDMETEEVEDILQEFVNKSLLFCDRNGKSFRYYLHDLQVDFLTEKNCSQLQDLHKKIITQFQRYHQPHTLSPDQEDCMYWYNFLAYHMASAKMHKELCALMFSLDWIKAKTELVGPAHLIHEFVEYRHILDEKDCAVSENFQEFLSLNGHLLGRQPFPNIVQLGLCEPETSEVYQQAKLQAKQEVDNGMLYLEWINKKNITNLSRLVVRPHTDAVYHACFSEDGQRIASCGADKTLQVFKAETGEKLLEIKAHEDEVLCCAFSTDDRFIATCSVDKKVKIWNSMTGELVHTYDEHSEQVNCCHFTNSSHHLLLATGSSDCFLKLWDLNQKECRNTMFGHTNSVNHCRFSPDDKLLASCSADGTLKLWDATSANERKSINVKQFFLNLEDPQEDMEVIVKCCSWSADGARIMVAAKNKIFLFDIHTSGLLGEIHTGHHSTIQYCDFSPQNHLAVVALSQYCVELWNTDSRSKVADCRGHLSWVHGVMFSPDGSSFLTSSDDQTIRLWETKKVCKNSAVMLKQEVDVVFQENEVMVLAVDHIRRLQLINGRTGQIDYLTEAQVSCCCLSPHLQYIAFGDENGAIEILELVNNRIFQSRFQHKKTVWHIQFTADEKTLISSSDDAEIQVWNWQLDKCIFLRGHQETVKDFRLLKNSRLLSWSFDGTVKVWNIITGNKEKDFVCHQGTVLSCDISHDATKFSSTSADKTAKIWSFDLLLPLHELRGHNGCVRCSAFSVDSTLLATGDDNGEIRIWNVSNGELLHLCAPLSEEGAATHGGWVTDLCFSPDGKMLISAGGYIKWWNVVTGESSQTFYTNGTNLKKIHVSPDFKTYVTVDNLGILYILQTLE

[8] = target: DNA dC->dU-editing enzyme APOBEC-3G (Homo sapiens, UniProt Q9HC16); assay: Dose Response confirmation of small molecule APOBEC3G DNA Deaminase Inhibitors via a fluorescence-based single-stranded DNA deaminase assay. [Related pubchem assays (depositor defined):AID493012, AID493028]; assay type: functional
[9] = target: T2, Apoptotic protease-activating factor 1; assay: SAR analysis of small molecule Activators of Apaf-1 in a Fluorescent assay - set 2.; assay type: functional; settings: read-out: EC50_Mean
[10] = SAR analysis of small molecule activators of Apaf-1 using a LZ-Caspase-9/Caspase-3 Fluorescent Selectivity assay - Set 2.; assay type: functional; settings: read-out: EC50_Mean

Protein disulfide-isomerase, sequence (P07237 whole entry): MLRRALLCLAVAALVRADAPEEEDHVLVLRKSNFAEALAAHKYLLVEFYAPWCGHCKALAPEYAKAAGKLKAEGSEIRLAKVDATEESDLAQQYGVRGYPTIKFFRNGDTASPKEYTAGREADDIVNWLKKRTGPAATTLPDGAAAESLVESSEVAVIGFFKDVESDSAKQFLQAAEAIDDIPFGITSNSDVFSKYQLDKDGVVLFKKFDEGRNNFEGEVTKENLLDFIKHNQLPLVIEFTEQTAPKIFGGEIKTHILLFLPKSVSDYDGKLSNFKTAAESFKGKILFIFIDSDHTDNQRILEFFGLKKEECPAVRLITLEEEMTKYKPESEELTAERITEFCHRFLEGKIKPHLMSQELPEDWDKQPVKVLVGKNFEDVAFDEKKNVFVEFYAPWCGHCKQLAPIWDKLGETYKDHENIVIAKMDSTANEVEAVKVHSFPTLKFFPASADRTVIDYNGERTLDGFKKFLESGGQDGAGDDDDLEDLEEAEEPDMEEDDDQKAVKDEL
Melanocortin receptor 4, sequence (P32245 whole entry): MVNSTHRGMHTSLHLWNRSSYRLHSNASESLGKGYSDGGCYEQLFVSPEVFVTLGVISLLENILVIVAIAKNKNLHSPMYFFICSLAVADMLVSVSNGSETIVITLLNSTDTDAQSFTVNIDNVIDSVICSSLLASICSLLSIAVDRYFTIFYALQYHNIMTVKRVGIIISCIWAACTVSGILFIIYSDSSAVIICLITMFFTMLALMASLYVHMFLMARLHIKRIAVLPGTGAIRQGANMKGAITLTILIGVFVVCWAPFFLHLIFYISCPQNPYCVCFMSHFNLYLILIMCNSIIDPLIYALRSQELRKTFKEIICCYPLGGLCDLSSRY
DNA dC->dU-editing enzyme APOBEC-3G, sequence (Q9HC16 whole entry): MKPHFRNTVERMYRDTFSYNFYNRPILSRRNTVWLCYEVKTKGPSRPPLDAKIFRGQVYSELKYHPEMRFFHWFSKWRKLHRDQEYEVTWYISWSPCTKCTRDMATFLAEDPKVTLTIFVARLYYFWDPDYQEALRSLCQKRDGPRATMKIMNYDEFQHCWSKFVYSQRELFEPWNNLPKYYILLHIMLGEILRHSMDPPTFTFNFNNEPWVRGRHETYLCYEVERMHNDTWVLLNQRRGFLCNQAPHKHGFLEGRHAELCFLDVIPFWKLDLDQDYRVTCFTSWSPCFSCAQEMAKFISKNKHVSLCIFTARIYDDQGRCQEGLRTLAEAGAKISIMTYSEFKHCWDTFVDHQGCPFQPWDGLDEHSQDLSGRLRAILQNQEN
Multidrug resistance protein CDR2, sequence (P78595 whole entry): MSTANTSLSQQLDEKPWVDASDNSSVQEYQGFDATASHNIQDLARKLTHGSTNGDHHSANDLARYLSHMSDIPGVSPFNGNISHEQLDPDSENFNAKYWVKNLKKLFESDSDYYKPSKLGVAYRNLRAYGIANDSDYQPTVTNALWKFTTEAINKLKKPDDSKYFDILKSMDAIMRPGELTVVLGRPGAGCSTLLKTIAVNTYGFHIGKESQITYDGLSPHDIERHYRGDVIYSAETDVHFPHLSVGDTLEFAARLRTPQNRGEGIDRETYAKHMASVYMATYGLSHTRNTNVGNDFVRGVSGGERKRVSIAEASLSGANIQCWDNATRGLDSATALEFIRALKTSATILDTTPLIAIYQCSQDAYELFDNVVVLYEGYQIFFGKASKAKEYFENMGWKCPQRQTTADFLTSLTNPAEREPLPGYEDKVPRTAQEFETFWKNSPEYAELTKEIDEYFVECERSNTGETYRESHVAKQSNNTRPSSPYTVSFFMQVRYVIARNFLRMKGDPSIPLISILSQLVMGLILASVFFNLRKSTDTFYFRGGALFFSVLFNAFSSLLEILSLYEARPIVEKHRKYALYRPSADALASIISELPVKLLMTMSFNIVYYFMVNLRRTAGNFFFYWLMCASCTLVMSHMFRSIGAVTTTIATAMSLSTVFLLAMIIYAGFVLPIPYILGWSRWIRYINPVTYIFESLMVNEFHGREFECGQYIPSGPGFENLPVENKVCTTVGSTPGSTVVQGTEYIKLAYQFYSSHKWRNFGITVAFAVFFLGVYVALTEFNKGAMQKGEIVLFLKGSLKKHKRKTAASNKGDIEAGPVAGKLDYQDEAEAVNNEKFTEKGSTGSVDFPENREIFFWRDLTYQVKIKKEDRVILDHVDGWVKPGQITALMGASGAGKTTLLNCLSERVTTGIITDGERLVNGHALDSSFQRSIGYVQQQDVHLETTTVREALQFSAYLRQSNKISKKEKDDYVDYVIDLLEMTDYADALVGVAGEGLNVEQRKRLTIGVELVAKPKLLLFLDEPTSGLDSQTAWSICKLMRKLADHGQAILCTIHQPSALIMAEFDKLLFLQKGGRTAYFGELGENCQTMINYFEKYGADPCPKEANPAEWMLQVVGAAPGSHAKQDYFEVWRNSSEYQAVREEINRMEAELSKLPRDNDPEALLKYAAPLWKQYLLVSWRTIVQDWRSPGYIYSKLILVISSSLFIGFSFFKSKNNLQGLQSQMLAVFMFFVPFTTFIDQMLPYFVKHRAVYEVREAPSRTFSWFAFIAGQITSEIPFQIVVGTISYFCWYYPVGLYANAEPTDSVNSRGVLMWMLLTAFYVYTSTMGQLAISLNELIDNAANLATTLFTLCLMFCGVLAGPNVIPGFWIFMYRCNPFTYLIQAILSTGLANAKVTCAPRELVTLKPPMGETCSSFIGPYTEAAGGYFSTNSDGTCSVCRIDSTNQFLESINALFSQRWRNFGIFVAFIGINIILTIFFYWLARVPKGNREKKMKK
Melanin-concentrating hormone receptor 1, sequence (Q99705 whole entry): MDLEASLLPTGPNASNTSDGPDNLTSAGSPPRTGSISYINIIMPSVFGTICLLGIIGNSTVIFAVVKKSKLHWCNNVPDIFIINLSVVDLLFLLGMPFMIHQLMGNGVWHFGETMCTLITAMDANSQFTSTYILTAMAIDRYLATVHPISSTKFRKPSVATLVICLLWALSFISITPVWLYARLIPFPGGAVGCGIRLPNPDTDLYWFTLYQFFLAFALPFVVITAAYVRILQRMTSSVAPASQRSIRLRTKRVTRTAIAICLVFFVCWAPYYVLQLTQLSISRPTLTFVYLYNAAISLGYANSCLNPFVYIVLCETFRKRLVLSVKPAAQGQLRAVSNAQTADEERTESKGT

With `CCOc1ccc(Sc2cnn(Cc3cccc4ccccc34)c(=O)c2Cl)cc1` the IC50 [1] was 5 µM (active) and the IC50 [2] was > 20 µM (inactive).
For `COc1ccc2nccc(/C=C/c3ccnc4ccc(OC)cc34)c2c1`, the EC50 [3] was 14 µM (active).
In the case of `Cn1ccs/c1=N\C(=O)c1ccc(S(C)(=O)=O)c([N+](=O)[O-])c1`, the IC50 [4] is reported as > 64.6 µM (inactive) and the IC50 [5] is reported as > 64.6 µM (inactive).
With `C[C@H](CO)N1C[C@H](C)[C@@H](CN(C)S(=O)(=O)c2ccc(F)cc2)Oc2ccc(NC(=O)Cc3cn(C)c4ccccc34)cc2C1=O` the AC50 [6] was 19.5 µM (active).
With `O=C(O)C1CC(c2ccc(F)cc2)=NO1` (stereo not given) the EC50 [7] was 6.69 µM (active), the IC50 [8] was 10.9 µM (active) and the EC50 [9] was 6.39 µM (active) and 3.86 µM (active) and > 99 µM (inactive). The EC50 [10] was > 100 µM (inactive) and > 99 µM (inactive).
